According to paper PMC10799085, “A miniaturized mode-of-action profiling platform enables high throughput characterization of the molecular and cellular dynamics of EZH2 inhibition” (Scientific Reports, 2024):
Where two headings read alike, the source gives them in different places. Values belong to the compound of their own block, whether it stands above or below them.

What was measured:
PRC2/EZH2Y641N+Y661D = target: T1, PRC2/EZH2Y641N+Y661D (Homo sapiens, UniProt Q15910, Y641N/Y661D); test: Scintillation proximity assay (SPA) of H3K27 methylation; assay type: biochemical
T1 construct: N-terminal 6His-tagged full length EZH2^Y641N, EZH2^Y111L, EZH2^Y111D, EZH2^Y641N, Y661DEZH2, EZH1; 6His (N); made in house; host or cells: Sf9 insect cells (baculovirus co-infection)

EZH2 = system: EZH2; design: method as in Konze et al. [41]; conditions: 40-fold higher enzyme concentration; ref Konze et al. [41]; cited from earlier work
PRC2/EZH2+/+ [1] = target: T2, PRC2/EZH2+/+ (Homo sapiens, UniProt Q15910); test: Equilibrium binding thermodynamics (van't Hoff analysis of ePCA/kPCA at 5-37 °C); conditions: ePCA at 5-37 °C, wild type EZH2
T2 construct: purchased Active Motif
Procedure: (§1) For thermodynamic analysis of the binding to EZH2+/+ the probe characterization, equilibrium and kinetic probe competition assays described above (previously conducted at 25 °C) were performed at 5, 15, 30 and 37 °C. […] For measurements at 25, 30 and 37 °C, the temperature control functionality of the instrument was used.
Equilibrium and kinetic binding constants obtained at various temperatures were used to determine the thermodynamic parameters by van’t Hoff and Eyring analysis, as described elsewhere for SPR and radioligand binding experiments[46],[69]. For the van’t Hoff thermodynamic analysis, changes in entropy ΔS° and enthalpy ΔH° were estimated by linear regression using the van’t Hoff equation. lnKA=ΔS^∘/R-ΔH^∘/RT,
Changes in Gibb’s free energy ΔG° were calculated according to. ΔG^∘T=ΔH^∘-T×ΔS^∘
Additionally, the possible temperature dependence of the thermodynamic parameters was considered using the integrated form of the van’t Hoff equation[47] for nonlinear regression to yield the changes in entropy, enthalpy, and heat capacity ΔCp: ln KA=-ΔH^∘T^∘/RT+ΔS^∘T^∘/R+ΔCp/R[T-T^∘/T-lnT/T^∘],

PRC2/EZH2+/+ [2] = target: T2, PRC2/EZH2+/+; test: Transition state thermodynamics (Eyring analysis of kPCA at 5-37 °C); assay type: binding; conditions: Kinetic (Eyre); for Enthalpic Efficiency (kon): association; for Enthalpic Efficiency (koff): dissociation
Procedure: as §1
For Eyring transition state analysis, changes in the activation entropy ΔS^# and enthalpy ΔH^# were estimated by Eyring analysis using linear regression of. lnkh/kBT=ΔS^#/R-ΔH^#/(RT).
To consider the possible temperature dependence, the activation entropy and enthalpy were obtained along with the activation heat capacity ΔC^#p by nonlinear regression using. lnkh/kBT=-ΔH^#T^∘/RT+ΔS^#T^∘/R+ΔCp#/R[T-T^∘/T-lnT/T^∘],

PRC2/EZH1 = target: T3, PRC2/EZH1 (Homo sapiens, UniProt Q92800); test: Scintillation proximity assay (SPA) of H3K27 methylation; assay type: biochemical
T3 construct: N-terminal 6His-tagged full length EZH2^Y641N, EZH2^Y111L, EZH2^Y111D, EZH2^Y641N, Y661DEZH2, EZH1; 6His (N); made in house; host or cells: Sf9 insect cells (baculovirus co-infection)

[3] = system: H3K27me3 mark in MDA-MB-231 cells; test: High content analysis (HCA) of cellular H3K27me3 mark, washout format; assay type: cell-based; conditions: for IC50: Homo sapiens, MDA-MB-231, read-out: Mean IC50 (M), H3K27 methylation HCA
Procedure: In the low- and high-signal control wells, test compounds were replaced by 10 µM of EZH2 inhibitor (equal to unlabeled probe from ePCA and kPCA) or DMSO, respectively. […] After fixation, the cells were washed with PBS and incubated with 1% BSA blocking solution at RT for 1 h. Blocking solution was discarded, primary monoclonal antibody rabbit Tri-methyl-histone H3K27 (C36B11, Cell signaling) diluted 1:200 in blocking solution was added and incubated overnight at 4 °C. […] Afterwards, cells were washed three times with PBS and incubated at 4 °C until measuring. Fluorescence signals were captured by an Opera Phenix™ High Content Screening (HCA) system (Perkin Elmer) by 10× magnification. […] Microscopy images were initially visualized and preprocessed with MetaXpress High Content Image Acquisition & Analysis Software (Molecular Devices) as previously described. Raw data import, normalization, quality control and fitting curves for IC50 determination of tested compounds were done with Genedata Screener® for high-content screening. Wells with no recognizable signals were masked and the average intensity of the trimethylation signal was normalized to the DMSO control (0%).

[4] = 0' enzyme:inhibitor pre-incubation, read-out: SPA Mean IC50 (M) - 0' enzyme:inhibitor pre-incubation EZH2Y641N+Y661D
[5] = 15' enzyme:inhibitor pre-incubation, read-out: SPA Mean IC50 (M) - 15' enzyme:inhibitor pre-incubation EZH2Y641N+Y661D
[6] = 60' enzyme:inhibitor pre-incubation, read-out: SPA Mean IC50 (M) - 60' enzyme:inhibitor pre-incubation EZH2Y641N+Y661D

T2 sequence (Q15910 whole entry): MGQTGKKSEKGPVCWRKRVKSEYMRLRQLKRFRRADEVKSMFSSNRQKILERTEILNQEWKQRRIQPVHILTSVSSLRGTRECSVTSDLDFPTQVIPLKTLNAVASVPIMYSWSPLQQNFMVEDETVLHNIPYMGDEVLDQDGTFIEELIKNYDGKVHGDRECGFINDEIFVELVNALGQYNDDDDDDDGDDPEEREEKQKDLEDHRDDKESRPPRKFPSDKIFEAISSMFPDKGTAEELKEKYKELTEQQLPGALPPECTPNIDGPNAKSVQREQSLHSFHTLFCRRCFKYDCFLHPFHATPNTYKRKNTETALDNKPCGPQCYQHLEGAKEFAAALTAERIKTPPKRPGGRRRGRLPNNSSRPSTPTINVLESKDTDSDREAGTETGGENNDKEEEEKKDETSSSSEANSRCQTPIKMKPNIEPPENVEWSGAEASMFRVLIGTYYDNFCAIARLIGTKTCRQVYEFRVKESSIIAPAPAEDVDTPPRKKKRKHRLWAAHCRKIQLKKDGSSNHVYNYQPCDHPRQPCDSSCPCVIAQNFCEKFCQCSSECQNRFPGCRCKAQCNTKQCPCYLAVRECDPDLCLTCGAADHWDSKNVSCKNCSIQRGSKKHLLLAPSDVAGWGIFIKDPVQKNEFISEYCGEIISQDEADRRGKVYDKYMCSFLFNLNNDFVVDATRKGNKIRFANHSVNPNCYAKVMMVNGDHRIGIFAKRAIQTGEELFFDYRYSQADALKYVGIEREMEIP
T2 sequence (O75530 whole entry partner): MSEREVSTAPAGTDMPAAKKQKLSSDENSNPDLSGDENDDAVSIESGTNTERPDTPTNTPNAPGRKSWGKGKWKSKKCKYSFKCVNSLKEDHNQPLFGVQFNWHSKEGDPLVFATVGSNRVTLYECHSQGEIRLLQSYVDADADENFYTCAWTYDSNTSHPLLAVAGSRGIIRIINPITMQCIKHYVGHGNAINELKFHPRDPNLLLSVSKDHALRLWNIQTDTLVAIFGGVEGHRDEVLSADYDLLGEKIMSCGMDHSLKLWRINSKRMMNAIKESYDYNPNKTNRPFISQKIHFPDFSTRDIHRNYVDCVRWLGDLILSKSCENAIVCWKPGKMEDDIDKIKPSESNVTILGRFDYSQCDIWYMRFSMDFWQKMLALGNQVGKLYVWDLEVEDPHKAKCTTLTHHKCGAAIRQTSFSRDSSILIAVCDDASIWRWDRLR
T2 sequence (Q15022 whole entry partner): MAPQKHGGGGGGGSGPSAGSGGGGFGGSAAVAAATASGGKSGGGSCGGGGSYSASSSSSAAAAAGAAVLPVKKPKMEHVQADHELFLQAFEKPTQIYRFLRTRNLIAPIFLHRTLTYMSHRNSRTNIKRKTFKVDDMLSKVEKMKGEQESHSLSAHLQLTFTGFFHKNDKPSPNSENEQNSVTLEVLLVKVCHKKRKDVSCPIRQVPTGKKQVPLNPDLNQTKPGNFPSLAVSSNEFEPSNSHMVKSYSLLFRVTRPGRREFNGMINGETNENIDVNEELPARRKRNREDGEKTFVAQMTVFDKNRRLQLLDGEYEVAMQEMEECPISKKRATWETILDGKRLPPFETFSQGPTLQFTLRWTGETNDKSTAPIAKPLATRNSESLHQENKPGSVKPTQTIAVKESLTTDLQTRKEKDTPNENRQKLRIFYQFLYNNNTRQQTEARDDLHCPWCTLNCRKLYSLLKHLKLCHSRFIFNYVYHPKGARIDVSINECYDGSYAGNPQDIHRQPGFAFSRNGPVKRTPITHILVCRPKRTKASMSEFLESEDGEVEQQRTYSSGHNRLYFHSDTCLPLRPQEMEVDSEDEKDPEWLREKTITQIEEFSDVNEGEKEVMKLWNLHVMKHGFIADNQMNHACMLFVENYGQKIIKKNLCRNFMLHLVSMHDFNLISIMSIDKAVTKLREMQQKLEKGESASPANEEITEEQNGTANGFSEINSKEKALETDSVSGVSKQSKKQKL
T2 sequence (Q09028 whole entry partner): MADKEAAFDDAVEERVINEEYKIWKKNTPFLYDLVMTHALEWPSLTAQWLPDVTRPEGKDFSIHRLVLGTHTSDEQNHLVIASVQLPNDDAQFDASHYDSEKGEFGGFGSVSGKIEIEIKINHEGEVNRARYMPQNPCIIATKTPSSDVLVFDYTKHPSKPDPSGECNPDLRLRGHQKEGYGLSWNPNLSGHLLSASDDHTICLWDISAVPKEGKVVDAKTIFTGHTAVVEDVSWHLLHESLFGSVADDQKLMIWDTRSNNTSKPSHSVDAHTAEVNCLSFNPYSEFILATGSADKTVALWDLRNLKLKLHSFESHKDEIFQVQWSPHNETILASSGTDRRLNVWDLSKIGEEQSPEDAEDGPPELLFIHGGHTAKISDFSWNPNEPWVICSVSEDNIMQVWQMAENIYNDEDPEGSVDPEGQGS
T2 sequence (Q6ZN18 whole entry partner): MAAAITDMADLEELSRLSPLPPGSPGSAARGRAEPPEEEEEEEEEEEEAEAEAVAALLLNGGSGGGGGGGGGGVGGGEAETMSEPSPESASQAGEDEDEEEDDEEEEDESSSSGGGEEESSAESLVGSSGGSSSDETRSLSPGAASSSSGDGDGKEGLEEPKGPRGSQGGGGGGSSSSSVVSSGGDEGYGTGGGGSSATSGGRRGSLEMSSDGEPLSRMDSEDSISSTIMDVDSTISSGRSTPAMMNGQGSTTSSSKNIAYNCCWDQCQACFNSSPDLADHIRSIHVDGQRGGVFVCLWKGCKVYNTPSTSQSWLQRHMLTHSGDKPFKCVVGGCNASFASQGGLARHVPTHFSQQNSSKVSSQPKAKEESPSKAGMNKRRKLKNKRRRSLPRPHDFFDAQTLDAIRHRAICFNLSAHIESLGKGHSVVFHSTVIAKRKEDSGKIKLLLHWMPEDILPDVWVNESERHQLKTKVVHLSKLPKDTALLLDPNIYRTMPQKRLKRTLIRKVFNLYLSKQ
T1 sequence (Q15910 whole entry Y641N/Y661D): as the sequence (Q15910 whole entry) above, with Y641N, Y661D counted along it
T1 sequence (O75530 whole entry partner): as the sequence (O75530 whole entry partner) above
T1 sequence (Q15022 whole entry partner): as the sequence (Q15022 whole entry partner) above
T1 sequence (Q09028 whole entry partner): as the sequence (Q09028 whole entry partner) above
T1 sequence (Q6ZN18 whole entry partner): as the sequence (Q6ZN18 whole entry partner) above

IC50 (PRC2/EZH2Y641N+Y661D; [4]): 3e-06 M | IC50 (PRC2/EZH2Y641N+Y661D; [5]): 2.4e-06 M | IC50 (PRC2/EZH2Y641N+Y661D; [6]): 3.2e-06 M
SMILES: CCCc1cc(C)[nH]c(=O)c1CNC(=O)c1cc(-c2ccc(N3CCN(C(C)C)CC3)nc2)cc2c1cnn2C(C)C [Compound 9, UNC1999]
IC50 (EZH2): 0.01 µM

SMILES: Cc1cc(C)c(CN2CCc3c(Cl)cc(-c4c(C)noc4C)c(Cl)c3C2=O)c(=O)[nH]1 [Compound 14]
binding driving force, polynomial van't Hoff analysis (PRC2/EZH2+/+ [1]): entropy-driven | Enthalpic Efficiency (kon) (PRC2/EZH2+/+ [2]; EZH2+/+ (Linear Fit)): 1.3 kcal/mol | Enthalpic Efficiency (koff) (PRC2/EZH2+/+ [2]; EZH2+/+ (Linear Fit)): 1.9 kcal/mol | -T * ΔS°kon-koff (PRC2/EZH2+/+ [2]; EZH2+/+ (Linear Fit)): -7.51 kcal/mol | ΔG°kon-koff (PRC2/EZH2+/+ [2]; EZH2+/+ (Linear Fit)): -12 kcal/mol | ΔH°kon-koff (PRC2/EZH2+/+ [2]; EZH2+/+ (Linear Fit)): -4.49 kcal/mol | Enthalpic Efficiency (kon) (PRC2/EZH2+/+ [2]; EZH2+/+ (Non-linear Fit)): 0.47 kcal/mol | Enthalpic Efficiency (koff) (PRC2/EZH2+/+ [2]; EZH2+/+ (Non-linear Fit)): 1.3 kcal/mol | -T * ΔS°kon-koff (PRC2/EZH2+/+ [2]; EZH2+/+ (Non-linear Fit)): -5.28 kcal/mol | ΔG°kon-koff (PRC2/EZH2+/+ [2]; EZH2+/+ (Non-linear Fit)): -12.1 kcal/mol | ΔH°kon-koff (PRC2/EZH2+/+ [2]; EZH2+/+ (Non-linear Fit)): -6.79 kcal/mol | Ligand Efficiency - 0' enzyme:inhibitor pre-incubation EZH1 (PRC2/EZH1): 1.1 | Ligand Efficiency - 15' enzyme:inhibitor pre-incubation EZH1 (PRC2/EZH1): 1.1 | Ligand Efficiency - 60' enzyme:inhibitor pre-incubation EZH1 (PRC2/EZH1): 1.1 | IC50 (PRC2/EZH1; 0' enzyme:inhibitor pre-incubation, read-out: SPA Mean IC50 (M) - 0' enzyme:inhibitor pre-incubation EZH1): 3.1e-07 M | IC50 (PRC2/EZH1; 15' enzyme:inhibitor pre-incubation, read-out: SPA Mean IC50 (M) - 15' enzyme:inhibitor pre-incubation EZH1): 2.9e-07 M | IC50 (PRC2/EZH1; 60' enzyme:inhibitor pre-incubation, read-out: SPA Mean IC50 (M) - 60' enzyme:inhibitor pre-incubation EZH1): 2.9e-07 M | Ligand Efficiency - 0' enzyme:inhibitor pre-incubation EZH2Y641N+Y661D (PRC2/EZH2Y641N+Y661D): 1.0 | Ligand Efficiency - 15' enzyme:inhibitor pre-incubation EZH2Y641N+Y661D (PRC2/EZH2Y641N+Y661D): 1.0 | Ligand Efficiency - 60' enzyme:inhibitor pre-incubation EZH2Y641N+Y661D (PRC2/EZH2Y641N+Y661D): 1.0 | IC50 (PRC2/EZH2Y641N+Y661D; [4]): 1.4e-06 M | IC50 (PRC2/EZH2Y641N+Y661D; [5]): 1.1e-06 M | IC50 (PRC2/EZH2Y641N+Y661D; [6]): 1.6e-06 M | AUC (a.u.) ([3]; HCA H3K27 methylation washout pIC50 AUC over all incubation/washout times): 92.2 a.u. | IC50 ([3]; incubation time 0.5 h, washout time 71.5 h): 7e-06 M | IC50 ([3]; incubation time 1 h, washout time 71 h): 4.1e-06 M | IC50 ([3]; incubation time 2 h, washout time 70 h): 2.9e-06 M | IC50 ([3]; incubation time 4 h, washout time 68 h): 1.8e-06 M | IC50 ([3]; incubation time 24 h, washout time 48 h): 1.6e-06 M | IC50 ([3]; incubation time 48 h, washout time 24 h): 5.5e-07 M | IC50 ([3]; incubation time 72 h, washout time 0 h): 4.6e-08 M
